From ChEMBL document CHEMBL1151727, “Citrullination of linear and cyclic altered peptide ligands from myelin basic protein (MBP(87-99)) epitope elicits a Th1 polarized response by T cells isolated from multiple sclerosis patients: implications in triggering disease” (J Med Chem, 2008)
Activity calls are given as the source filed them. Where a SMILES comes first, the peptide text is derived from it. [ ]: non-standard residue; d: D form. Cit = NC(=O)NCCC[C@H](N)C(=O)O

Assays:
Assay type in all cases: functional, cell-based
PBMC [1] = experiment: Induction of IL10 secretion in healthy human PBMC at 10 pg/mL per 10^6 cells after 72 hrs by ELISA
PBMC [2] = experiment: Decrease in IL10 secretion in PBMC isolated from multiple sclerosis patient at 10 pg/mL per 10^6 cells after 72 hrs by ELISA; settings: Homo sapiens
PBMC [3] = experiment: Increase in IFN-gamma secretion in PBMC isolated from multiple sclerosis patient at 10 pg/mL per 10^6 cells after 72 hrs by ELISA; settings: Homo sapiens
PBMC [4] = experiment: Increase in IL2 secretion in PBMC isolated from multiple sclerosis patient at 10 pg/mL per 10^6 cells after 72 hrs by ELISA; settings: Homo sapiens
PBMC [5] = experiment: Induction of IFN-gamma secretion in healthy human PBMC at 10 pg/mL per 10^6 cells after 72 hrs by ELISA

Measured: Activity

CC[C@H](C)[C@H](NC(=O)[C@H](CC(N)=O)NC(=O)[C@H](CCCCN)NC(=O)[C@H](Cc1ccccc1)NC(=O)[C@H](Cc1ccccc1)NC(=O)[C@H](Cc1cnc[nH]1)NC(=O)[C@@H](N)C(C)C)C(=O)N[C@H](C(=O)N[C@H](C(=O)N1CCC[C@H]1C(=O)N[C@@H](CCCNC(=N)N)C(=O)N[C@H](C(=O)N1CCC[C@H]1C(=O)O)[C@@H](C)O)[C@@H](C)O)C(C)C
active: PBMC [1] | PBMC [2]

CC[C@H](C)[C@H](NC(=O)[C@H](CC(N)=O)NC(=O)[C@H](CCCNC(N)=O)NC(=O)[C@H](Cc1ccccc1)NC(=O)[C@H](Cc1ccccc1)NC(=O)[C@H](Cc1cnc[nH]1)NC(=O)[C@@H](N)C(C)C)C(=O)N[C@H](C(=O)N[C@H](C(=O)N[C@@H](C)C(=O)N[C@@H](CCCNC(N)=O)C(=O)N[C@H](C(=O)N1CCC[C@H]1C(=O)O)[C@@H](C)O)[C@@H](C)O)C(C)C (H-VHFF[Cit]NIVTA[Cit]TP-OH)
active: all assays above

H-VHFFRNIVTARTP-OH
active: PBMC [1] | PBMC [5]
